The data set can be described thus: Syringeability study of 25HC3S suspensions. The format is physicochemical. The method, then: Two lots of 25HC3S sodium salt (Lot #A and Lot #B) were used. Lot #B was delumped through a 20 mesh screen. The drug substance was either used directly or further jet-milled, prior to the preparation of suspensions for the studies. A third lot of 25HC3 S sodium salt (Lot #C) was jet-milled first and then used directly or further passed through a 20 mesh screen prior to the studies. More than 10 vehicles were screened. Four mixing methods were evaluated: manual shaking (Mixing Method 1), manual shaking followed by sonication (Mixing Method 2) and homogenization with a sonic probe (Mixing Method 3) as well as mechanical shaking horizontally in a flat bed shaker (Mixing Method 4). Studies #1 to 13 combined vehicle screening, mixing methods and syringeability evaluation. The effect of drug concentrations on the syringeability was evaluated (Studies #10 and 11). Syringe: 1 mL BD syringe (luer lok tip), reference no: 309628 Needles for syringeability study: listed below Weigh approximately 10 to 100 mg each of 25HC3S into 2 mL vials. Add to each vial, 1 mL of vehicle. A total of 3 mixing methods were used to prepare the suspensions. Mixing Method 1: Each vial was manually shaken for 15 to 45 times. […] The effect of 25HC3S with or without jet milling and the effects of mixing methods as well as drug concentrations on the syringeability were evaluated. […]

The record followed here is patent publication US20220175798A1, “COMPOSITIONS COMPRISING OXYGENATED CHOLESTEROL SULFATE AND AT LEAST ONE OF POLYALKYLENE GLYCOL, CARBOXYMETHYL CELLULOSE AND POLYOXYLGLYCERIDE” (Durect Corporation, priority 2016, published 2022).

As to `C[C@H](CCCC(C)(C)O)[C@H]1CC[C@H]2[C@@H]3CC=C4C[C@@H](OS(=O)(=O)[O-])CC[C@]4(C)[C@H]3CC[C@]12C.[Na+]` [Formulation 25HC3S, 5-cholesten-3, 25-diol, 3-sulfate], the syringeability result (25 mg/mL in Vehicle PEG 3350 (without L-Methionine), flat bed shaker 200 rpm up to 45 minutes (Study #13)) is reported as “good syringeability” and the syringeability result (final suspension formulation: 25 mg/mL in 3% PEG 3350, 0.3% Tween 80, 0.75% NaCl, 10 mM phosphate buffer pH 7.4) is reported as “good syringeability”.
